biological target: T1, PDE4B (human recombinant) (Homo sapiens, UniProt Q07343); experiment: PDE4B inhibition, fluorescence polarisation (FP) and/or SPA assay; assay type: biochemical; details: n=1 or average of 2 or more readings, accuracy ±about 0.5 log unit, read-out: PDE4B pIC50 (generally in FP assay) (±about 0.5) (converted)
T1 construct: made in house
Outline: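 Human recombinant PDE4B (yeast-expressed, HSPDE4B2B variant) preincubated with compound 10-30 min at ambient temperature; SPA with ~10 nM [3H]cAMP, 1 h, Tris-HCl pH 7.5, ≤20% hydrolysis; or IMAP FP with ~40 nM fluorescein-cAMP, Tris-HCl pH 7.2. pIC50 from 10-point curves (1.5 nM-30 uM).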

T1 sequence (Q07343 1-564 isoform Q07343-2): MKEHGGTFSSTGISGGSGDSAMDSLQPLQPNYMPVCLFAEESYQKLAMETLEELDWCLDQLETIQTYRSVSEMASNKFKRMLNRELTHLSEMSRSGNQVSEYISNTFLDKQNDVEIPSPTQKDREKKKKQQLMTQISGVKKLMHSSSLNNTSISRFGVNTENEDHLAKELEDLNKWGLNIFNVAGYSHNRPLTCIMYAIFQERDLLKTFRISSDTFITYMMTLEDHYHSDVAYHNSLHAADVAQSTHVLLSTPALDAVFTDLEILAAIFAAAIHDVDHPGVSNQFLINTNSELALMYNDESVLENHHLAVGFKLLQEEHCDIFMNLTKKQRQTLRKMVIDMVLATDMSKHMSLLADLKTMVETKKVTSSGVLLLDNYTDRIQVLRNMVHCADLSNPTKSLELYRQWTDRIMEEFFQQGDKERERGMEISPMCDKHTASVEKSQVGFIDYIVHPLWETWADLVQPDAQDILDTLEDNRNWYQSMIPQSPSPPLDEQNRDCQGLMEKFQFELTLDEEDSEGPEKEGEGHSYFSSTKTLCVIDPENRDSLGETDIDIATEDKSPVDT

Compared with `CCc1nc2c(cnn2CC)c(NC2CCOCC2)c1CNC(=O)c1ccc(-c2ccc(C(=O)NCc3c(CC)nc4c(cnn4CC)c3NC3CCOCC3)cc2)cc1` [Example 23, N,N′-bis{[1,6-diethyl-4-(tetrahydro-2H-pyran-4-ylamino)-1H-pyrazolo[3,4-b]pyridin-5-yl]methyl}-4,4′-biphenyldicarboxamide], `CCc1nc2c(cnn2CC)c(NC2CCOCC2)c1CNC(=O)c1ccc(C(=O)NCc2c(CC)nc3c(cnn3CC)c2NC2CCOCC2)o1` [Example 35, N,N′-bis{[1,6-diethyl-4-(tetrahydro-2H-pyran-4-ylamino)-1H-pyrazolo[3,4-b]pyridin-5-yl]methyl}-2,5furandicarboxamide] is 4-fold lower in IC50: about 158 pM for the first, about 39.8 pM for the second.

For `CCn1ncc2c(NC3CCOCC3)c(CNC(=O)c3cccc(-c4cccc(C(=O)NCc5c(C)nc6c(cnn6CC)c5NC5CCOCC5)c4)c3)c(C)nc21` [Example 29, N,N′-bis{[1-ethyl-6-methyl-4-(tetrahydro-2H-pyran-4-ylamino)-1H-pyrazolo[3,4-b]pyridin-5-yl]methyl}-3,3′-biphenyldicarboxamide], the IC50 was about 100 pM.
